Literature values in patent US20090048237A1 (priority 2007, published 2009).
Read-outs that look alike come from different tables or passages of the source.

Key:
[1] = in vivo
[2] = sublingual Halcion tablets
[3] = 125 mcg and 250 mcg
[4] = 200 mcg sublingual
[5] = children
[6] = not given; remark: listed apart in the source
[7] = 0.2 mg/kg sublingual versus 0.2 mg/kg nasal, children
[8] = human, in vivo

Row | Compound | tablet dissolution time [1] [s] | tablet dissolution after dosing [2] [min] | sedation and psychomotor performance, elderly versus young persons at the same dose [3] | depth of sedation versus 10 mg oral diazepam [4] | time after administration at which sedation developed ([4]; 61-70 year old patients) [min] | average sublingual tablet dissolution [5] [min] | patients with complete drug dissolution within 10 min (7.5 mg sublingual tablet) [%] | sedation scores (7.5 mg sublingual versus oral, 30 and 60 min after administration) | children with satisfactory sedation at 15 min after administration ([6]; 0.25 mg/kg under the tongue) [%] | children with satisfactory sedation at 15 min after administration ([6]; 0.5 mg/kg under the tongue) [%] | children with satisfactory sedation at 15 min after administration ([6]; 0.75 mg/kg under the tongue) [%] | midazolam level 30 min after premedication [7] | children who had not previously cried that cried on administration [8] [%] | patients who experienced nasal irritation [8]
1 | Cc1nnc2n1-c1ccc(Cl)cc1C(c1ccccc1Cl)=NC2 [Triazolam, 8-chloro-6-(o-chlorophenyl)-1-methyl-4H-s-triazolo-[4,3-alpha][1,4]benzodiazepine] | ≤ 90 | 2 to 3 | greater degree of sedation and greater impairment of psychomotor performance | deeper sedation | 60 to 90 | 4 |  |  |  |  |  |  |  | 
2 | Cc1ncc2n1-c1ccc(Cl)cc1C(c1ccccc1F)=NC2 [Midazolam, 8-chloro-6-(2-fluorophenyl)-1-methyl-4H-imidazo[1,5-a][1,4]benzodiazepine] |  |  |  |  |  |  | 72 | higher than in the oral group | 28 | 52 | 64 | statistically significantly higher than in the nasal group | 71 | 20
